This is an account of results in patent US8853213B2, “Bicyclic compound for modulating G protein-coupled receptors” (Hanmi Pharm. Co., Ltd, priority 2011, dated 2014).

For this assay, the target named is T1, GPR119 (Homo sapiens, UniProt Q8TDV5).
T1 construct: host or cells: CHO-K1 (CRE-bla reporter, doxycycline-induced)
T1 sequence (Q8TDV5 1-335): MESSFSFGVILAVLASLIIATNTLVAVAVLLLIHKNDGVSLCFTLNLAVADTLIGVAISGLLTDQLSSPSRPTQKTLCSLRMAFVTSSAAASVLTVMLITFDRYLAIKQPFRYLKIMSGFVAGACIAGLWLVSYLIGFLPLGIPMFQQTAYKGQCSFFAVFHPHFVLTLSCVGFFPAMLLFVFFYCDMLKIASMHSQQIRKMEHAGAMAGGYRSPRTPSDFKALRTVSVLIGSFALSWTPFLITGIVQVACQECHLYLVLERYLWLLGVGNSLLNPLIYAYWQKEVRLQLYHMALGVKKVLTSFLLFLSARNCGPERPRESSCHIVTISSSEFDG
The experiment in a line: Controlling Effect of GPR119 in CRE-bla CHO-K1 Cells (EC50). In kind it is cell-based. Conditions: GPR119 CRE-bla CHO-K1 cell line, 5 hr incubation with compound, β-lactamase LiveBLAzer-FRET B/G readout; read-out: controlling effect against GPR119 in CRE-bla CHO-K1 cell line (EC50). The method, then: Controlling Effect of GPR119 in CRE-bla CHO-K1 Cells (EC50)
The day before the experiment, GPR119 CRE-bla CHO-K1 cell line purchased from Invitrogen was seeded in a 96 black well plate in an amount of 80 μl at a density of 5×10^4 cells. After the seeding, 10 μl of doxycycline in a concentration of 1 μg/ml was added to each well and incubated in an incubator at 37° C. under 5% CO2 for about 16 to 20 hr.
The day of experiment, sample compounds were performed a 10-fold serial dilution with a culture medium at various concentrations of 1 uM to […]. Considering that the culture medium used in the seeding and doxycycline are together applied, the sample compounds were diluted to a 5-fold dilution of the planned concentration. 20 μl of the compound diluted with the culture medium was added to each well and incubated in the incubator for 5 hr. The compound-untreated group was added with 20 μl of 0.5% dimethyl sulfoxide (DMSO) diluted with the culture medium. After 5 hr from the incubation, substrate mixture of a 6-fold concentration were prepared; 6 μl of 1 mM LiveBLAzer™-FRET B/G(CCF4-AM) substrate, 60 μl of solution B, 904 μl of solution C and 30 μl of solution D. 12 μl of the substrate mixture was added to each well and allowed to be kept at room temperature for 2 hr with shading the light. Fluorescence intensity value of blue channel and green channel was determined by a fluorescence microplate reader at 409 nm/460 nm and 409 nm/[…] (excitation/emission), respectively. In order to confirm the controlling effect of the inventive compounds against GPR119, EC50 (half maximal effective concentration) was determined based on the determined values. EC50, the concentration at which 50% activity of β-lactamase, was determined according to the following Equation: Equation=[(Ti−Tz)/(C−Tz)]×100
[Wherein, Ti: Cell density of the compound-treated group; Tz: Cell density of the negative control group; and C: Cell density of the positive control group]
In general, EC50 refers to the concentration giving half of the maximal effect. Regarding “7-(2-fluoro-4-4-[1-(5-trifluoromethylpyrimidin-2-yl)-piperidin-4-yloxy]-thieno[3,2-d]pyrimidine [Example 82]”, the EC50 is less than 100 nM. `CS(=O)(=O)c1ccc(-c2csc3c(N4CCC(c5nc(C6CC6)no5)CC4)ncnc23)cc1` [Example 1, 3-cyclopropyl-5-(1-(7-(4-methanesulfonyl-phenyl)thieno[3,2-d]pyrimidin-4-yl)piperidin-4-yl)-1,2,4-oxadiazole]: the EC50 was less than 100 nM.

On to `CS(=O)(=O)c1ccc(-c2csc3c(N4CCCC4)ncnc23)cc1` [Example 2, 7-(4-methanesulfonyl-phenyl)-4-(pyrrolidin-1-yl)thieno[3,2-d]pyrimidine], for which the EC50 is greater than 1000 nM. For `CS(=O)(=O)c1ccc(-c2csc3c(N4CCCCC4)ncnc23)cc1` [Example 3, 7-(4-methanesulfonyl-phenyl)-4-(piperidin-1-yl)thieno[3,2-d]pyrimidine] the value was greater than 1000 nM. For `CCc1noc(C2CCN(c3ncnc4c(-c5ccc(S(C)(=O)=O)cc5)csc34)CC2)n1` [Example 4, 3-ethyl-5-(1-(7-(4-methanesulfonyl-phenyl)thieno[3,2-d]pyrimidin-4-yl)piperidin-4-yl)-1,2,4-oxadiazole] the value was 100 to 1000 nM; for `CC(C)c1noc(C2CCN(c3ncnc4c(-c5ccc(S(C)(=O)=O)cc5)csc34)CC2)n1` [Example 5, 3-isopropyl-5-(1-(7-(4-methanesulfonyl-phenyl)thieno[3,2-d]pyrimidin-4-yl)piperidin-4-yl)-1,2,4-oxadiazole], less than 100 nM. Regarding `CS(=O)(=O)c1ccc(-c2csc3c(N4CCC(c5nc(C6CCCC6)no5)CC4)ncnc23)cc1` [Example 6, 3-cyclopentyl-5-(1-(7-(4-methanesulfonyl-phenyl)thieno[3,2-d]pyrimidin-4-yl)piperidin-4-yl)-1,2,4-oxadiazole], the EC50 is less than 100 nM. For `CS(=O)(=O)c1ccc(-c2csc3c(N4CCC(c5nc(C6CCCCC6)no5)CC4)ncnc23)cc1` [Example 7, 3-cyclohexyl-5-(1-(7-(4-methanesulfonyl-phenyl)thieno[3,2-d]pyrimidin-4-yl)piperidin-4-yl)-1,2,4-oxadiazole] the value was less than 100 nM; for `CS(=O)(=O)c1ccc(-c2csc3c(N4CCC(c5nc(-c6ccccc6)no5)CC4)ncnc23)cc1` [Example 8, 5-(1-(7-(4-(methanesulfonylphenyl)phenyl)thieno[3,2-d]pyrimidin-4-yl)piperidin-4-yl)-3-phenyl-1,2,4-oxadiazole], 100 to 1000 nM; for `CC(C)c1noc(N2CCN(c3ncnc4c(-c5ccc(S(C)(=O)=O)cc5)csc34)CC2)n1` [Example 9, 3-isopropyl-5-(4-(7-(4-methanesulfonyl-phenyl)thieno[3,2-d]pyrimidin-4-yl)piperazin-1-yl)-1,2,4-oxadiazole], 100 to 1000 nM. With `CC(C)(C)OC(=O)N1CCN(c2ncnc3c(-c4ccc(S(C)(=O)=O)cc4)csc23)CC1` [Example 10, tert-butyl 4-(7-(4-methanesulfonyl-phenyl)thieno[3,2-d]pyrimidin-4-yl)piperazine-1-carboxylate], the EC50 is 100 to 1000 nM. Regarding `CCc1cnc(N2CCN(c3ncnc4c(-c5ccc(S(C)(=O)=O)cc5)csc34)CC2)nc1` [Example 11, 4-(4-(5-ethylpyrimidin-2-yl)piperazin-1-yl)-7-(4-methanesulfonyl-phenyl)thieno[3,2-d]pyrimidine], the EC50 was 100 to 1000 nM. The value for `CC(C)c1noc(C2CCN(c3ncnc4c(-c5ccc(S(C)(=O)=O)cc5F)csc34)CC2)n1` [Example 12] was less than 100 nM.

On to `CC(C)c1noc(C2CCN(c3ncnc4c(-c5ccc(S(C)(=O)=O)c(F)c5)csc34)CC2)n1` [Example 13], for which the EC50 was greater than 1000 nM. The value for `CC(C)c1noc(C2CCN(c3ncnc4c(-c5ccc([N+](=O)[O-])cc5)csc34)CC2)n1` [Example 14, 4-[4-(3-isopropyl-[1,2,4]oxadiazol-5-yl)-piperidin-1-yl]-7-(4-nitro-phenyl)-thieno[3,2-d]pyrimidine] was greater than 1000 nM.
